Measured values taken from US20240400589A1, “4-AMINOPHENYLPHOSPHO[…] FOR BLOCKING C-REACTIVE PROTEIN” (Pentracor GmbH, priority 2021, published 2024).
Like-named read-outs stand apart in the source and are kept apart here. Where a SMILES comes first, the peptide text is derived from it. The star is where a group is joined. X1 = C[N+](C)(C)CCOP(=O)([O-])Oc1ccc(N*)cc1

Legend:
[1] = biological target: T1, CRP (CRP-containing human plasma) (Homo sapiens, UniProt P02741); assay: Inhibition of CRP binding to a plate-coated BSA-APPC construct
T1 construct: from tissue; host or cells: human plasma
T1 sequence (P02741 19-224): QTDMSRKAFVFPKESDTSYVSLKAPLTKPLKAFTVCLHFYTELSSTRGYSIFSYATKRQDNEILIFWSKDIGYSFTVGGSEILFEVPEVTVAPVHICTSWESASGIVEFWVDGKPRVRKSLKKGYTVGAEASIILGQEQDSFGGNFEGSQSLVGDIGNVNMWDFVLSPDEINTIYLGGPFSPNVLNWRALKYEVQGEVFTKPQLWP
Method: A microtiter plate was coated with 100 μg/mL of a BSA-APPC construct, which binds CRP in a calcium-dependent manner, for 1 hour at room temperature (coating buffer: 0.1 M NaHCO3). Subsequently, 4 washes with 400 μl binding buffer (0.1 M Tris, 0.2 M NaCl, 2 mM CaCl2)) and non-specific binding sites were saturated with block solution (1% casein, 0.9% NaCl, 0.001% thiomersal) for 1 h at room temperature or overnight at 2-8° C.
Afterwards, the block solution was removed and the samples were applied in binding buffer. CRP-containing human plasma was diluted to 50 ng/mL CRP and applied either pure or together with different concentrations (0.25-3 mM) of the various inhibitors 1, 4, 5 and APPC and incubated for 1.5 h at room temperature with horizontal shaking (600 rpm). The plate was then washed again as described above.
After washing, 100 μL of a POD-labelled rabbit anti-huCRP antibody (final concentration: 25 ng/mL) in calcium-containing block solution (final concentration of calcium 4 mM) was added and the plate was incubated for 1.5 h at room temperature with shaking.
The plate was then washed again as described above. Development was carried out by adding 100 μl substrate buffer (0.2 M citric acid, 0.01% H2O2, 100 μg/mL TMB). The colour reaction was stopped by adding 50 μL of 1 M H2SO4 and the absorbance was measured at 450 nm. The absorbance at 655 nm (turbidity) was subtracted as background.
For the determination of inhibition, the OD of the CRP with inhibitor was normalised to the OD of the CRP without inhibitor:
The relative OD was then plotted against the concentration of stabilised APPC constructs in the batch. Only APPC was used as a comparative sample. It is clear that constructs 1 and 5 or 3 and APPC show an inhibition curve that is identical within the measurement uncertainty. […] For APPC/3, the corresponding concentration is 0.7±0.06 mmol/L. Thus, all stabilised APPC constructs show a good inhibition capacity.

huCRP [2] = biological target: T2, huCRP (Homo sapiens, UniProt P02741); assay: ELISA: binding of CRP to solid phase-fixed biotin-D-Glu(APPC)-NH2 on streptavidin-coated microtiter plates; settings: for Optical Density (OD): mean of duplicates
T2 sequence (P02741 19-224): T1 sequence (P02741 19-224)
Method: Streptavidin-coated microtiter plates were incubated with a solution containing biotin-D-Glu(APPC)—NH2) (2) and then washed with phosphate buffer (PBS). The reactive parts of the MTP surface were then blocked with BSA solution (a standard procedure). CRP was then added in a concentration range of 31-500 ng/ml and incubated (see table below). After renewed washing, the bound CRP was detected using a murine monoclonal antibody (DH7) against CRP and a secondary, POD-conjugated anti-mouse antibody, followed by substrate development

huCRP [3] = biological target: T2, huCRP; assay: ELISA: binding of free CRP and free biotin-D-Glu(APPC)-NH2 in solution, complex captured on streptavidin plates; settings: for Optical Density (OD): mean of duplicates
Method: CRP and compound 2 were incubated in a reaction vessel for 1 h at room temperature for complexation. The final concentrations were 10 μg/ml CRP (MW approx. 125 KD) and 2 μg/ml compound 2 (MW approx. 1 KD). The solution was then added to streptavidin-coated microtiter plates (MTP) at the dilution levels indicated in Tab. 2 at […] each and incubated with a block solution (Roche) for 30 min at room temperature. The MTPs were then washed 3 times. Using the in house monoclonal antibody “DH7” specific for huCRP and a peroxidase-conjugated secondary antibody (anti-mouse) as well as the substrate TMB, the huCRP previously bound to compound 2 was detected.

[4] = 50 ng/mL CRP from human plasma, inhibitor 0.25-3 mM, BSA-APPC coated plate, read-out: 50% inhibitor concentration (IC50)

C[N+](C)(C)CCOP(=O)([O-])Oc1ccc(NC(=O)CC[C@@H](N)C(N)=O)cc1 [Compound 1, D-Glu(APPC)—NH2]
IC50 [1, 4]: 1.6 ± 0.1 mM

CC(=O)N1CCC[C@H]1C(=O)N[C@@H](C)C(=O)N[C@@H](CO)C(=O)N[C@@H](CCC(=O)Nc1ccc(OP(=O)([O-])OCC[N+](C)(C)C)cc1)C(=O)N1CCC[C@H]1C(=O)N[C@@H](C)C(=O)N[C@@H](CO)C(N)=O [Compound 5] (Ac-PASE(X1)PAS-NH2)
IC50 [1]: 1.6 ± 0.1 mM

C[N+](C)(C)CCOP(=O)([O-])Oc1ccc(NC(=O)CC[C@@H](NC(=O)CCCC[C@@H]2SC[C@@H]3NC(=O)N[C@@H]32)C(N)=O)cc1 [Compound 2, Biotin-D-Glu(APPC)—NH2]
Optical Density (OD) (huCRP [2]; CRP 31 ng/ml): 1.061 | Optical Density (OD) (huCRP [2]; CRP 62.5 ng/ml): 1.512 | Optical Density (OD) (huCRP [2]; CRP 125 ng/ml): 2.081 | Optical Density (OD) (huCRP [2]; CRP 250 ng/ml): 2.627 | Optical Density (OD) (huCRP [2]; CRP 500 ng/ml): 3.242 | Binding to CRP (CRP binding curve, FIG. 1) (huCRP [2]; solid phase-fixed compound): binds to CRP | Optical Density (OD) (huCRP [3]; complex dilution 1:20, 10 μg/ml CRP + 2 μg/ml compound 2): 2.685 | Optical Density (OD) (huCRP [3]; complex dilution 1:40): 2.219 | Optical Density (OD) (huCRP [3]; complex dilution 1:80): 1.801 | Optical Density (OD) (huCRP [3]; complex dilution 1:160): 1.242 | Optical Density (OD) (huCRP [3]; complex dilution 1:320): 0.875 | Optical Density (OD) (huCRP [3]; complex dilution 1:640): 0.548 | Optical Density (OD) (huCRP [3]; complex dilution 1:1280): 0.381 | Binding of CRP in solution (dilution series, FIG. 2) (huCRP [3]; free CRP and free compound, 1 h room temperature): binds CRP in solution

C[N+](C)(C)CCOP(=O)([O-])Oc1ccc(N)cc1 [APPC, 4-aminophenylphosphocholine, reference compound]
IC50 [1, 4]: 0.7 ± 0.06 mM
